Measured values as given in patent US20250186436A1 (4E Therapeutics, Inc., priority 2021, published 2025).
Where two headings read alike, the source gives them in different places.

Tests used:
[1] = test system: eIF4E phosphorylation at Serine 209 in HEK 293 cells; test: eIF4E phosphorylation in HEK 293 cells (phospho-specific antibody, fluorescent plate reader); assay type: cell-based; settings: Homo sapiens, HEK293; eIF4E phosphorylation at Serine 209, 2 hours exposure; read-out: HEK 293 cell;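 further: Well-level p-eIF4E immunofluorescence normalized to DAPI signal, expressed as percent eIF4E phosphorylation, with IC50 derived from concentration-response curves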
[2] = biological target: T1, recombinant full-length human kinase MNK1 (Homo sapiens, UniProt Q9BUB5); test: MNK1 radiometric kinase activity assay; assay type: biochemical
T1 construct: the recombinant full-length human kinase MNK1; made in house; host or cells: insect cells
T1 sequence (Q9BUB5 whole entry): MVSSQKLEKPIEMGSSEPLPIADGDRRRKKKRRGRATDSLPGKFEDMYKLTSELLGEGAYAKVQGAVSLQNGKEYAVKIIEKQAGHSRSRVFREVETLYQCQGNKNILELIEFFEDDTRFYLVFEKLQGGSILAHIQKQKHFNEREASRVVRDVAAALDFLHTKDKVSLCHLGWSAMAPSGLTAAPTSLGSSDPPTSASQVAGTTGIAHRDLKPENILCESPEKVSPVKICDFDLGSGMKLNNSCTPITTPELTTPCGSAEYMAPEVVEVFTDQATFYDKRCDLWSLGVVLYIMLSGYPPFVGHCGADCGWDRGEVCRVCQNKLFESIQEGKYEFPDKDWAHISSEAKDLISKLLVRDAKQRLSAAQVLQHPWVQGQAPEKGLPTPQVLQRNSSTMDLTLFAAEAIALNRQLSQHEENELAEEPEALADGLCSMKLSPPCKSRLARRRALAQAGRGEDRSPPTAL

[3] = biological target: T2, recombinant full length human kinase MNK2 (Homo sapiens, UniProt Q9HBH9); test: MNK2 radiometric kinase activity assay; assay type: biochemical
T2 construct: the recombinant full length human kinase MNK2; made in house; host or cells: insect cells
T2 sequence (Q9HBH9 whole entry): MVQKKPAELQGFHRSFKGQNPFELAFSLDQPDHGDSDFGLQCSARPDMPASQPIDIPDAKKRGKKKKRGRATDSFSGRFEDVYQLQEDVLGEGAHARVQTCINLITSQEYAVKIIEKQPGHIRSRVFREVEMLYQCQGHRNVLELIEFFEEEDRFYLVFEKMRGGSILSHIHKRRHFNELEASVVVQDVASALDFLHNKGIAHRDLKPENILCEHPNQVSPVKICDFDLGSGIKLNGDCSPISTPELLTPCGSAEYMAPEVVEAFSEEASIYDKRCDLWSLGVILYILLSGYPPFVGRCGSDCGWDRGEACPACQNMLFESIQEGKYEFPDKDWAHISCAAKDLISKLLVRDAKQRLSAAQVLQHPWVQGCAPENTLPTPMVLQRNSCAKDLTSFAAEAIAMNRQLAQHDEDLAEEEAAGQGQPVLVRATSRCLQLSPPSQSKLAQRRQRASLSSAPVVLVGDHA

[4] = Liver microsome stability; settings: mouse, liver microsomes
[5] = test system: P-gp (human MDR1, ABCB1); test: MDCK-MDR1 permeability (blood-brain barrier permeability); settings: dog
[6] = radiometric activity assay, read-out: MNK1
[7] = radiometric activity assay, read-out: MNK2

IC50 [2, 6] [nM] | IC50 [3, 7] [nM] | half-life [4] [h] | Papp A→B at 5 uM [5] [×10⁻⁶ cm/s] | Papp B→A at 5 uM [5] [×10⁻⁶ cm/s] | efflux ratio at 5 uM [5] | SMILES | IC50 [1] [nM] | IC50 [2] [nM] | IC50 [3] [nM]
13.1 | 0.8 |  |  |  |  | Cc1cc(Nc2cc(N)ncn2)c(=O)n2c1C(=O)NC21CC2(CCC2)C1 [4ET-01-009, 6″-((6-aminopyrimidin-4-yl)amino)-8″-methyl-2″H-dispiro[cyclobutane-1,1′-cyclobutane-3′,3″-imidazo[1,5-a]pyridine]-1″,5″-dione] | 3.6 |  | 
25.3 | 1.5 | 4.93 | 18.7 | 71 | 3.8 | Cc1cc(Nc2cc(N)ncn2)c(=O)n2c1C(=O)NC21CCC2(CC1)CC2(F)F (stereo not drawn) [4ET-03-068, 6″-((6-aminopyrimidin-4-yl)amino)-2,2-difluoro-8″-methyl-2″H-dispiro[cyclopropane-1,1′-cyclohexane-4′,3″-imidazo[1,5-a]pyridine]-1″,5″-dione] | 3.4 |  | 
43.9 | 4.2 | 4.2 | 43.9 | 71.9 | 1.6 | Cc1cc(Nc2cc(N)ncn2)c(=O)n2c1C(=O)NC21CCC2(CCC2)CC1 [4ET-01-019, 6″-((6-aminopyrimidin-4-yl)amino)-8″-methyl-2″H-dispiro[cyclobutane-1,1′-cyclohexane-4′,3″-imidazo[1,5-a]pyridine]-1″,5″-dione] | 4.9 |  | 
36 | 3 | 0.793 | 46.7 | 70.7 | 1.5 | Cc1cc(Nc2cc(N)ncn2)c(=O)n2c1C(=O)NC21CC2(CCCCC2)C1 [4ET-01-020, 6″-((6-aminopyrimidin-4-yl)amino)-8″-methyl-2″H-dispiro[cyclohexane-1,1′-cyclobutane-3′,3″-imidazo[1,5-a]pyridine]-1″,5″-dione] | 4.3 |  | 
33 | 3.5 | 11.3 | 48.6 | 46.5 | 1 | Cc1cc(Nc2cc(N)ncn2)c(=O)n2c1C(=O)NC21CCC2(CCCC2)C1 (stereo not drawn) [4ET-01-016, 6″-((6-aminopyrimidin-4-yl)amino)-8″-methyl-2″H-dispiro[cyclopentane-1,1′-cyclopentane-3′,3″-imidazo[1,5-a]pyridine]-1″,5″-dione] | 8.9 |  | 
41.8 | 4.1 | 0.853 | 50.8 | 66.7 | 1.3 | Cc1cc(Nc2cc(N)ncn2)c(=O)n2c1C(=O)NC21CC2(CCCC2)C1 [4ET-01-018, 6″-((6-aminopyrimidin-4-yl)amino)-8″-methyl-2″H-dispiro[cyclopentane-1,1′-cyclobutane-3′,3″-imidazo[1,5-a]pyridine]-1″,5″-dione] | 4.1 |  | 
69.2 | 7.9 | 4.35 | 29 | 47.2 | 1.6 | Cc1cc(Nc2cc(N)ncn2)c(=O)n2c1C(=O)NC21CC2(CC(F)(F)C2)C1 [4ET-01-017, 6″-((6-aminopyrimidin-4-yl)amino)-3,3-difluoro-8″-methyl-2″H-dispiro[cyclobutane-1,1′-cyclobutane-3′,3″-imidazo[1,5-a]pyridine]-1″,5″-dione] | 41.6 |  | 

Second part, the compound before the results:

SMILES | IC50 [2, 6] [nM] | IC50 [3, 7] [nM] | half-life [4] [h] | Papp A→B at 5 uM [5] [×10⁻⁶ cm/s] | Papp B→A at 5 uM [5] [×10⁻⁶ cm/s] | efflux ratio at 5 uM [5] | IC50 [1] [nM] | IC50 [2] [nM] | IC50 [3] [nM]
Cc1cc(Nc2cc(NCCO)ncn2)c(=O)n2c1C(=O)NC21CCC2(CC2)CC1 [4ET-03-074, 6″-((6-((2-hydroxyethyl)amino)pyrimidin-4-yl)amino)-8″-methyl-2″H-dispiro[cyclopropane-1,1′-cyclohexane-4′,3″-imidazo[1,5-a]pyridine]-1″,5″-dione] | 45.9 | 3.1 | 1.87 | 7.6 | 58.1 | 7.6 | 11.3 |  | 
Cc1cc(Nc2cc(NC(=O)[C@H]3[C@@H]4CN(C)C[C@@H]43)ncn2)c(=O)n2c1C(=O)NC21CCC2(CC2)CC1 [4ET-03-061, (1R,5S,6r)-3-methyl-N-(6-((8″-methyl-1″,5″-dioxo-1″,5″-dihydro-2″H-dispiro[cyclopropane-1,1′-cyclohexane-4′,3″-imidazo[1,5-a]pyridin]-638-yl)amino)pyrimidin-4-yl)-3-azabicyclo[3.1.0]hexane-6-carboxamide] | 36.2 | 1.7 |  |  |  |  | 5.2 |  | 
Cc1cc(Nc2cc(NC(=O)[C@H]3[C@@H]4CNC[C@@H]43)ncn2)c(=O)n2c1C(=O)NC21CCC2(CC2)CC1 [4ET-03-056, (1R,5S,6r)-N-(6-((8″-methyl-1″,5″-dioxo-1″,5″-dihydro-2″H-dispiro[cyclopropane-1,1′-cyclohexane-4′,3″-imidazo[1,5-a]pyridin]-638-yl)amino)pyrimidin-4-yl)-3-azabicyclo[3.1.0]hexane-6-carboxamide] | 51.8 | 3.5 | 2.95 | 0.5 | 15.9 | 31.8 | 11.1 |  | 
Cc1cc(Nc2cc(NC(=O)C3CC3)ncn2)c(=O)n2c1C(=O)NC21CCC2(CC1)CN(C(=O)OC(C)(C)C)C2 [4ET-03-048, tert-butyl 6″-((6-(cyclopropanecarboxamido)pyrimidin-4-yl)amino)-8″-methyl-1″,5″-dioxo-1″,5″-dihydro-2″H-dispiro[azetidine-3,1′-cyclohexane-4′,3″-imidazo[1,5-a]pyridine]-1-carboxylate] | 145 | 5.2 |  |  |  |  | 6.1 |  | 
Cc1cc(Nc2cc(NC(=O)C3CC3)ncn2)c(=O)n2c1C(=O)NC21CCC2(CC1)CN2C(=O)OCc1ccccc1 (stereo not drawn) [4ET-03-046] | 49.8 | 1.7 |  |  |  |  | 6.4 |  | 
CCOC(=O)C1CC12CCC1(CC2)NC(=O)c2c(C)cc(Nc3cc(NC(=O)C4CC4)ncn3)c(=O)n21 (stereo not drawn) [4ET-03-045, ethyl 6″-((6-(cyclopropanecarboxamido)pyrimidin-4-yl)amino)-8″-methyl-1″,5″-dioxo-1″,5″-dihydro-2″H-dispiro [cyclopropane-1,1′-cyclohexane-4′,3″-imidazo[1,5-a]pyridine]-2-carboxylate] | 131 | 12.1 |  |  |  |  | 17.7 |  | 
Cc1cc(Nc2cc(NC(=O)C3CC3)ncn2)c(=O)n2c1C(=O)NC21CCC2(CC1)CNC2 [4ET-03-049, N-(6-((8″-methyl-1″,5″-dioxo-1″,5″-dihydro-2″H-dispiro[azetidine-3,1′-cyclohexane-4′,3″-imidazo1[1,5-a]pyridin]-6″-yl)amino)pyrimidin-4-yl)cyclopropanecarboxamide] | 80 | 2.8 | 2.43 | 0.3 | 0.7 | 2.1 | 110 |  | 
Cc1cc(Nc2cc(N)ncn2)c(=O)n2c1C(=O)NC21CCC2(CC1)CN2 (stereo not drawn) [4ET-01-012, 6″-((6-aminopyrimidin-4-yl)amino)-8″-methyl-2″H-dispiro[aziridine-2,1′-cyclohexane-4′,3″-imidazo[1,5-a]pyridine]-1″,5″-dione] |  |  |  |  |  |  | 57.1 | 27.9 | 3
Cc1cc(Nc2cc(NC(=O)C3CC3)ncn2)c(=O)n2c1C(=O)NC21CC2(CCC2)C1 [4ET-03-043, N-(6-((8″-methyl-1″,5″-dioxo-1″,5″-dihydro-2″H-dispiro[cyclobutane-1,1′-cyclobutane-3′,3″-imidazo[1,5-a]pyridin]-6″-yl)amino)pyrimidin-4-yl)cyclopropanecarboxamide] | 44.9 | 1.7 | 3.35 | 27.4 | 56.3 | 2.1 | 0.9 |  | 
Cc1cc(Nc2cc(NC(=O)C3(CN(C)C)CC3)ncn2)c(=O)n2c1C(=O)NC21CCC2(CC2)CC1 [4ET-03-081, 1-((dimethylamino)methyl)-N-(6-((8″-methyl-1″,5″-dioxo-1″,5″-dihydro-2″H-dispiro[cyclopropane-1,1′-cyclohexane-4′,3″-imidazo[1,5-a]pyridin]-6″-yl)amino)pyrimidin-4-yl)cyclopropane-1-carboxamide] | 30.3 | 10.1 | 1.24 | 17.1 | 23.4 | 1.4 |  |  | 
Cc1cc(Nc2cc(NC(=O)C3CC4(C3)CN(C)C4)ncn2)c(=O)n2c1C(=O)NC21CCC2(CC2)CC1 [4ET-03-060, 2-methyl-N-(6-((8″-methyl-1″,5″-dioxo-1″,5″-dihydro-2″H-dispiro[cyclopropane-1,1′-cyclohexane-4′,3″-imidazo[1,5-a]pyridin]-638-yl)amino)pyrimidin-4-yl)-2-azaspiro[3.3]heptane-6-carboxamide] | 31 | 1.7 |  |  |  |  | 6.5 |  | 
Cc1cc(Nc2cc(NC(=O)C3(CN)CC3)ncn2)c(=O)n2c1C(=O)NC21CCC2(CC2)CC1 [4ET-03-055, 1-(aminomethyl)-N-(6-((8″-methyl-1″,5″-dioxo-1″,5″-dihydro-2″H-dispiro[cyclopropane-1,1′-cyclohexane-4′,3″-imidazo[1,5-a]pyridin]-6″-yl)amino)pyrimidin-4-yl)cyclopropane-1-carboxamide] | 127 | 29.5 |  | 3 | 57.6 | 19 | 44 |  | 
Cc1cc(Nc2cc(NC(=O)C3(CNS(C)(=O)=O)CC3)ncn2)c(=O)n2c1C(=O)NC21CCC2(CC2)CC1 [4ET-03-076, N-(6-((8″-methyl-1″,5″-dioxo-1″,5″-dihydro-2″H-dispiro[cyclopropane-1,1′-cyclohexane-4′,3″-imidazo[1,5-a]pyridin]-638-yl)amino)pyrimidin-4-yl)-1-(methylsulfonamidomethyl)cyclopropane-1-carboxamide] | 37.5 | 12.2 |  |  |  |  |  |  | 
